Data set [1] deals with GBO (U251). The data set is described as follows: Live and dead cell staining of GBO. The format is cell-based. The note with it: GBO in bioreactor, live and dead cells stained. From the text:
Live and Dead Cell Analysis: Cells were stained with Live and Dead Cell Kit according to manufacturer's protocol (Abcam, ab115347). Sample images were acquired and analyzed using Nikon C2 Laser Scanning Confocal Microscope.

Data set [2] deals with SOX2 and CD44 expression in GBO. The data set is described as follows: IHC of GSC markers SOX2 and CD44 in GBO, fluorescence intensity by CTCF. Type of data set: cell-based. The note with it: GBO with vs without ROCKi. The protocol:
To further examine whether ROCKi maintained GSC stemness, the expression of GSC markers, SOX2 and CD44, were analyzed (FIG. 6B).
where A is the two-dimensional projected area, and p is perimeter. Images were acquired with 12-bit depth, and the raw files were analyzed using NIS-Elements Viewer (Nikon) and ImageJ (NIH). Fluorescence intensity was calculated by the corrected total cell fluorescence (CTCF).
Immunohistochemistry (IHC): GBOs were fixed using 4% paraformaldehyde (Alfa Acsar, J61899AK) overnight and dehydrated using ethanol followed by xylene. Dehydrated GBOs were embedded in paraffin. Paraffin-embedded GBOs were sectioned to 5 to 10 μm thickness. Deparaffinization was done by xylene followed by ethanol. Sectioned GBOs were rehydrated with water. 10 mM sodium citrate buffer with […] was formulated for antigen retrieval and adjusted to pH 6.0. Antigen retrieval was performed at 95° C. for ten minutes. Sectioned GBOs were stained with primary antibodies: CD133, SOX2, CD44, NOTCH1, DLL1, HIF-1α, CD31, CD34, CD144, CD146, α-SMA, NG2, GFAP, Map2, S100B, VEGFR, ZO1, and POU3f2, followed by secondary staining. Cell nuclei were counter stained by Hoechst 33342 (Invitrogen, H1399). Stained GBOs were mounted using ProLong Glass Antifade Mountant with NucBlue (Invitrogen, P36981) and imaged by Nikon C2 Laser Scanning Confocal Microscope.

Data set [3] relates to U251. Particulars: U251 inoculated as single cells, BR2 bioreactor, 60 and 120 rpm, 5 days of culture, with vs without ROCKi.
Protocol: Next, the effects of Rho-associated protein kinase inhibitor (ROCKi) Y-27632 on different bioreactor culture conditions were tested. […] To verify the effects, U251 was inoculated as single cells with or without ROCKi. […] To test whether low cell proliferation is a result of apoptosis, live and dead cells were stained.

As for `C[C@@H](N)[C@H]1CC[C@H](C(=O)Nc2ccncc2)CC1` [ROCKi, Y-27632], the apoptosis entry in data set [1] is reported as “did not induce apoptosis”. In addition, the “expression levels of GSC markers SOX2 and CD44” value in data set [2] was “not significantly different”. Moreover, the cell proliferation entry in data set [3] is given as “inhibited cell proliferation”.

The values above are taken from patent US20250019665A1, “SCALABLE BIOMANUFACTURING OF TUMOR ORGANOIDS” (The Board of Trustees of The University of Alabama, priority 2023, published 2025).
